Test results taken from article PMC4539421, “A Novel Microbisporicin Producer Identified by Early Dereplication during Lantibiotic Screening” (BioMed Research International, 2015).
No end group written: not given here.

Assays:
[1] = tested on: L3751 S. aureus L-form; experiment: MIC by broth microdilution, S. aureus L-form; assay type: cell-based, Staphylococcus aureus; conditions: broth microdilution assay [27]; L-form cells
Protocol: Staphylococcus aureus 209 ATCC 6538P (L100) were purchased from the American Type Culture Collection (ATCC; Manassas VA). L-form cells (L3751) were prepared from L100 by exposure to 100 U of penicillin in Enterococcal Brain Heart Infusion/S (EBH/S) supplemented with 5% NaCl, 5% sucrose, and 10% horse serum as previously described. L-forms were then cultured on similarly supplemented brain heart infusion agar containing no antibiotic. S. aureus Smith ATCC19636 (L819), Streptococcus pyogenes C203 ATCC12384 (L49), and other clinical isolates (S. aureus L1400, Enterococcus faecalis L559, Enterococcus faecalis Van A L560, Escherichia coli SKF12140 L47, and Candida albicans SKF2270 L145) were maintained in the Fondazione Istituto Insubrico Ricerca per la Vita (F.I.I.R.V.) culture collection (L collection) at Gerenzano, Italy.
(§1) Broth and mycelium screening extracts from the F.I.I.R.V. collection of Actinoallomurus strains isolated according as above were screened in liquid microplate assays for their antimicrobial activity on S. aureus 209 ATCC 6538P (L100) and to its L-form cells (L3751), as described in detail in [7]. In brief, S. aureus 209 ATCC 6538P (L100) and its L-form cells (L3751) were maintained at −80°C in Nutrient Broth (Difco) to which 20% (v/v) glycerol was added. EBH/S supplemented with 5% (v/v) horse serum was used as medium. For the wild-type inoculum, 10 μL of extracts previously dissolved in DMSO : H2O 1 : 9 (v/v) were added to 1 × 10^5 CFU/mL in 90 μL of culture broth. For L-form cells, aliquots of liquid cultures grown overnight in EBHI/S to O.D.620 nm = 0.2 were used as inoculum. Incubation time was 24 h at 35°C in air, and then growth inhibition was measured at O.D.620 nm. Reference actagardine, planosporicin, microbisporicin, mersacidin, and nisin standards were used and MIC levels were determined by broth microdilution assay as recommended by the National Committee for Clinical Laboratory Standards. To identify β-lactam producers, antimicrobial activity versus S. aureus 209 ATCC 6538P (L100) was measured in a liquid microplate assay after adding the following cocktail of β-lactamases: Penicillase Type I from Bacillus cereus (Sigma P0389), 0.001 U/mL; Penicillase Type II from Bacillus cereus (Sigma P6018), 0.002 U/mL; Penicillase type III from Enterobacter cloacae (Sigma P4399), 0.0025 U/mL; and Penicillase type IV from Enterobacter cloacae (Sigma P4524), 0.5 U/mL. To identify glycopeptide producers, antimicrobial activity versus S. aureus 209 ATCC 6538P (L100) was measured in a liquid microplate assay after adding 2 mg/mL of Ac-Lys-D-alanyl-D-alanine (Chem-Impex International Inc., IL).
(§2) Antimicrobial activity was determined by broth microdilution assay according to standard guidelines. […]

[2] = tested on: L145 C. albicans; assay type: cell-based, Candida albicans; conditions: broth microdilution assay [27]
Protocol: as §1, §2

[3] = tested on: L47 E. coli; assay type: cell-based, Escherichia coli; conditions: broth microdilution assay [27]
Protocol: as §1, §2

[4] = tested on: L100 S. aureus ATCC6538P; experiment: MIC by broth microdilution, S. aureus; assay type: cell-based, Staphylococcus aureus; conditions: broth microdilution assay [27]
Protocol: as §1
(§3) Antimicrobial activity was determined by broth microdilution assay according to standard guidelines. The growth media utilized to determine the MIC were cation-adjusted Difco Mueller Hinton Broth (MHB) for Staphylococci, Enterococci, and E. coli, Todd Hewitt Broth (THB) for Streptococci, and RPMI-1640 medium (RPMI) for C. albicans. Typically, a twofold serial dilution of the test compound was performed in a sterile 96-well microplate inoculated with 10^4 CFU/mL of the test strain in the appropriate medium. The microplate was then incubated for 18–24 h at 35°C.

[5] = tested on: L49 S. pyogenes; experiment: MIC by broth microdilution, S. pyogenes; assay type: cell-based, Streptococcus pyogenes; conditions: broth microdilution assay [27]
Protocol: as §1, §2

[6] = tested on: L1400 S. aureus MRSA; experiment: MIC by broth microdilution, MRSA; assay type: cell-based, Staphylococcus aureus; conditions: broth microdilution assay [27]; MRSA clinical isolate
Protocol: as §1, §3

[7] = tested on: S. aureus L-form L3751; experiment: Bioautography of HPLC fractions, S. aureus L-form; assay type: cell-based, Staphylococcus aureus; conditions: 1 mL HPLC fractions dried, resuspended in 100 μL 10% DMSO, 10 μL tested
Protocol: (§4) For bioautography, fractions (1 mL, eluting at 1 mL/min) from the HPLC column were collected, dried, and resuspended in 100 μL aqueous solution at 10% (v/v) DMSO. 10 μL were tested for antimicrobial activity. UV and mass spectra of molecules present in the active fractions were compared with those collected in the ABL database, which contains data on approximately 30,000 microbial metabolites collected from literature and patents since 1950 [20, 28], and in the commercially available Antibase (http://wwwuser.gwdg.de/~hlaatsc/antibase.htm).

[8] = tested on: S. aureus; experiment: Bioautography of HPLC fractions, S. aureus; assay type: cell-based, Staphylococcus aureus; conditions: 1 mL HPLC fractions dried, resuspended in 100 μL 10% DMSO, 10 μL tested
Protocol: as §4

Planosporicin
MIC [1]: >128 µg/mL | MIC [2]: >128 µg/mL | MIC [3]: >128 µg/mL | MIC [4]: 2 µg/mL | MIC [5]: <1 µg/mL | MIC [6]: 16 µg/mL

Microbisporicin
MIC [1]: >128 µg/mL | MIC [2]: >128 µg/mL | MIC [3]: >128 µg/mL | MIC [4]: ≤0.13 µg/mL | MIC [5]: <1 µg/mL | MIC [6]: ≤0.13 µg/mL

Mersacidin (CTFTLPGGGGVCTLTSECIC; also: lantibiotic mersacidin, thioether rings not placed; UniProt P43683 49-68, looked up) [lantibiotic standard]
MIC [1]: 64 µg/mL | MIC [4]: 4 µg/mL | MIC [6]: 8 µg/mL

Actagardine
MIC [1]: >128 µg/mL | MIC [2]: >128 µg/mL | MIC [3]: >128 µg/mL | MIC [4]: 32 µg/mL | MIC [5]: 2 µg/mL | MIC [6]: 16 µg/mL

Microbisporicin A2
Growth inhibition by HPLC fraction (bioautography) [7]: but not its L-form | Growth inhibition by HPLC fraction (bioautography) [8]: inhibits the microbial growth
